# Measured values taken from patent US8685916B2, “Opioid prodrugs with heterocyclic linkers” (Signature Therapeutics, Inc., priority 2011, dated 2014).
# Assays:
# [1] = Oral administration of oxycodone prodrugs co-dosed with trypsin inhibitor Compound 109 to rats; assay type: in vivo, rat
# [2] = Oral administration of hydrocodone prodrugs KC-40 or KC-50 co-dosed with Compound 109 to rats; conditions: rats, PO
# [3] = Spacer leaving group cyclization release rate in pH 7.4 phosphate buffer
# [4] = Pharmacokinetics following PO administration of Compound KC-55 to rats; conditions: oxycodone in rat plasma, oxycodone 10 mg/kg (28 μmol/kg)
# [5] = Oral administration of Compound KC-55 co-dosed with Compound 109 to rats; conditions: male, Sprague Dawley, rat, plasma, 36 umol/kg
structure (smiles),measurement,setting,value
"N=C(N)c1ccc2cc(OC(=O)c3ccc(N=C(N)N)cc3)ccc2c1 [Compound 109, 6-carbamimidoylnaphthalen-2-yl 4-(diaminomethyleneamino)benzoate]",effect of co-dosed trypsin inhibitor on release of oxycodone by prodrugs KC-12 and KC-17,[1],ability to attenuate release of oxycodone
same,effect of co-dosed trypsin inhibitor on release of hydrocodone by prodrugs KC-40 and KC-50,[2],ability to attenuate release of hydrocodone
"COc1ccc2c3c1O[C@H]1C(OC(=O)N4CCCC[C@@H]4CN)=CC[C@@]4(O)[C@@H](C2)N(C)CC[C@]314 [Compound KC-18, N-(oxycodone-6-enol-carbonyl)-R-(piperidine-2-methylamine)]",half-life at 2.18 mM,[3],52.5 ± 0.96 min
"COc1ccc2c3c1O[C@H]1C(=O)CC[C@@]4(O)[C@@H](C2)N(C)CC[C@]314 [Oxycodone, oxycodone]",OC Cmax ± sd,[4],14.7 ± 6.5^ ng/mL
same,Cmax,[5],18.8 ng/mL
